Experimental data taken from ChEMBL document CHEMBL4619774 (J Med Chem, 2020).

Tests used:
[1] = molecular target: Tissue-type plasminogen activator (Homo sapiens, UniProt P00750); type: single protein
[2] = molecular target: 3',5'-cyclic-AMP phosphodiesterase 4D (Homo sapiens, UniProt Q08499); assay: Inhibition of PDE4D (unknown origin)
[3] = Half life in beagle dog at 1 mg/kg, iv by HPLC-MS/MS analysis; type: ADME, organism-based, Canis lupus familiaris; settings: in vivo
[4] = Dose normalized Cmax in C57BL/6 mouse at 0.4 mg/kg, iv bolus injection or 3 mg/kg, po by LC-MS/MS analysis; type: ADME, organism-based; settings: in vivo
Coagulation factor X = Coagulation factor X (Homo sapiens, UniProt P00742); type: single protein
Chain of Coagulation factor X (P00742 41-179 limits assumed): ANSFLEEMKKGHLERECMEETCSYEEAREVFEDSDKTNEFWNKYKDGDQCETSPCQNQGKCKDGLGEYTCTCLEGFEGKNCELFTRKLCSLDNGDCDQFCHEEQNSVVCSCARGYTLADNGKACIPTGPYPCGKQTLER
Chain of Coagulation factor X (P00742 235-488 limits assumed): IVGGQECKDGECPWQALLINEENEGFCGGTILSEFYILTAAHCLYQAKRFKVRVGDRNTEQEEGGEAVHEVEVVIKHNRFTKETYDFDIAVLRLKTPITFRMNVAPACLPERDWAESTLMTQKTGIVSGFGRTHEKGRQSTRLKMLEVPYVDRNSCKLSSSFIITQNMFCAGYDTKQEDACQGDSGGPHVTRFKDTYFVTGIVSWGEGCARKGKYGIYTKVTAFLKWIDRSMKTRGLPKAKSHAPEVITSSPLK

[5] = molecular target: Prostaglandin G/H synthase 1 (Homo sapiens, UniProt P23219); assay: Inhibition of COX1 (unknown origin)
Chain of Prostaglandin G/H synthase 1 (P23219 whole entry): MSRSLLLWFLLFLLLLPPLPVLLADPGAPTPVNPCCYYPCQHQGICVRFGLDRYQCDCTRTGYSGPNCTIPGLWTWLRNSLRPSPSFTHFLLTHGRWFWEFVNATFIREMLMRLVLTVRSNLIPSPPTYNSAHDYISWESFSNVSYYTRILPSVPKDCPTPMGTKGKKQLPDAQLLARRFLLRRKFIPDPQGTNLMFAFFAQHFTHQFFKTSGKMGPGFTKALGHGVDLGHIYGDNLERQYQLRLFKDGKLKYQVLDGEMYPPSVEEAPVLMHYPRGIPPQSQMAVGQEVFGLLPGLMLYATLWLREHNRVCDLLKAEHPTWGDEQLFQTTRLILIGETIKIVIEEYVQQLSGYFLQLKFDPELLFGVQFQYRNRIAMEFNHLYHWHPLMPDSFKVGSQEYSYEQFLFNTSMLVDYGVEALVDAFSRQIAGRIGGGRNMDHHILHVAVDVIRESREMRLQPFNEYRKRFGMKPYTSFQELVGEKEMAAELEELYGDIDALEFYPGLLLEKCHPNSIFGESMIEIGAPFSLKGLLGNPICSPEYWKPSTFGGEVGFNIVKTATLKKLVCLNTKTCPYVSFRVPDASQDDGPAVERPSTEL

[6] = molecular target: T1, Peroxisome proliferator-activated receptor gamma (Homo sapiens) (UniProt P37231); assay: Binding affinity to PPARgamma (unknown origin) at 10 uM
T1 sequence (whole entry): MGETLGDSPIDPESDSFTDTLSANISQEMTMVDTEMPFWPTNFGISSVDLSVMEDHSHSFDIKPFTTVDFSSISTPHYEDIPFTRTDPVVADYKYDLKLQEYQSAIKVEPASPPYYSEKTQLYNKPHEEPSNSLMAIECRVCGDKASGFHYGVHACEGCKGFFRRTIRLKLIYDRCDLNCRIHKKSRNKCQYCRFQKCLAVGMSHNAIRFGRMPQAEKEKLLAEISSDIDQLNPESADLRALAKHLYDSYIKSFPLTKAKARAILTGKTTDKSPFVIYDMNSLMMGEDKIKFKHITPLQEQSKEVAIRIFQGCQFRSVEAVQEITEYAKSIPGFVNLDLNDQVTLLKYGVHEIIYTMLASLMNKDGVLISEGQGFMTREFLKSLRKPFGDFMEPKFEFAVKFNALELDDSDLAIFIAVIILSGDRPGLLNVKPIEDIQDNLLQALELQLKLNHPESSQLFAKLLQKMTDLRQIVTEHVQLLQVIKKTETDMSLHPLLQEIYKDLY

[7] = Dose normalized AUC (0 to t) in Sprague-Dawley rat at 3 mg/kg, po via gavage by HPLC-MS/MS analysis; type: ADME, organism-based; settings: in vivo
[8] = Clearance in beagle dog at 1 mg/kg, iv administered as bolus dose by HPLC-MS/MS analysis; type: ADME, organism-based, Canis lupus familiaris; settings: in vivo
[9] = Oral bioavailability in C57BL/6 mouse at 3 mg/kg by LC-MS/MS analysis; type: ADME, organism-based; settings: in vivo
Plasma = assay: Anticoagulant activity in human plasma assessed as concentration required to double the activated partial thromboplastin time incubated for 3 mins followed by calcium chloride addition by aPTT-s reagent based automated coagulometric method; type: functional
[10] = Volume of distribution at steady state in beagle dog at 1 mg/kg, iv by HPLC-MS/MS analysis; type: ADME, organism-based, Canis lupus familiaris; settings: in vivo, read-out: Vdss
[11] = Oral bioavailability in Sprague-Dawley rat at 100 via gavage mg/kg by HPLC-MS/MS analysis; type: ADME, organism-based; settings: in vivo, 100 mg/kg
Coagulation factor IX = Coagulation factor IX (Homo sapiens, UniProt P00740); type: single protein
Chain of Coagulation factor IX (P00740 47-191 limits assumed): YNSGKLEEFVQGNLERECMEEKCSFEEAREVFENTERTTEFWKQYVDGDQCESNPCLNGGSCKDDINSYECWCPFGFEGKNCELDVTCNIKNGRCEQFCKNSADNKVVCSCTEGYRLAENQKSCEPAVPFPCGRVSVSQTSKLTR
Chain of Coagulation factor IX (P00740 227-461 limits assumed): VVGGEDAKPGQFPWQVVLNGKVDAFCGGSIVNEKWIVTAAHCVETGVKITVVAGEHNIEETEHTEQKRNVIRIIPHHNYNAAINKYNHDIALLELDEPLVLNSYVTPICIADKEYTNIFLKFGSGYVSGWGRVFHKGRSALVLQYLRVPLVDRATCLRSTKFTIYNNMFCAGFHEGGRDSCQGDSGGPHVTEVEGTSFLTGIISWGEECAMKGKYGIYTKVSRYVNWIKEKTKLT

[12] = Oral bioavailability in C57BL/6 mouse at 100 mg/kg by LC-MS/MS analysis; type: ADME, organism-based; settings: in vivo

Chain of 3',5'-cyclic-AMP phosphodiesterase 4D (Q08499 whole entry): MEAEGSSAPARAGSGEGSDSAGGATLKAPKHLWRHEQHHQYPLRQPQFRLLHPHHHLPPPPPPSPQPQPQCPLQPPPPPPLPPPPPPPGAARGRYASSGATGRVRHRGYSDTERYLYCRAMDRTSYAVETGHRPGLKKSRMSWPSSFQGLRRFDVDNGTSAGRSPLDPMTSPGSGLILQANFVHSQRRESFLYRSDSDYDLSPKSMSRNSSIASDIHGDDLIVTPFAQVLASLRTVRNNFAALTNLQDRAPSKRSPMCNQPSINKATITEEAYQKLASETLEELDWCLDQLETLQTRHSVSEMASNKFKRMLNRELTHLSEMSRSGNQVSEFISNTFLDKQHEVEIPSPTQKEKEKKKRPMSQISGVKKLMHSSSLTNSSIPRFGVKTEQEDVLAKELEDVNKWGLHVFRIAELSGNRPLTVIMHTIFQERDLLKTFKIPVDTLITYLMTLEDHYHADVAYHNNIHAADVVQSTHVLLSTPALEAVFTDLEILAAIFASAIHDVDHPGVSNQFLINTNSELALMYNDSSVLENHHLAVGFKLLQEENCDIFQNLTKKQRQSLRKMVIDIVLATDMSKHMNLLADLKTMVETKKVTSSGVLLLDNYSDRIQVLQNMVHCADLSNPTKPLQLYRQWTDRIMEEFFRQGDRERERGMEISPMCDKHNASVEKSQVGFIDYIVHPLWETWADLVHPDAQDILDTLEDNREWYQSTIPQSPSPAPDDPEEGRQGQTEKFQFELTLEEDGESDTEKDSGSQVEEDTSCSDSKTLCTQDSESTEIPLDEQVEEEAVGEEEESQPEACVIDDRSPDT
Chain of Tissue-type plasminogen activator (P00750 whole entry): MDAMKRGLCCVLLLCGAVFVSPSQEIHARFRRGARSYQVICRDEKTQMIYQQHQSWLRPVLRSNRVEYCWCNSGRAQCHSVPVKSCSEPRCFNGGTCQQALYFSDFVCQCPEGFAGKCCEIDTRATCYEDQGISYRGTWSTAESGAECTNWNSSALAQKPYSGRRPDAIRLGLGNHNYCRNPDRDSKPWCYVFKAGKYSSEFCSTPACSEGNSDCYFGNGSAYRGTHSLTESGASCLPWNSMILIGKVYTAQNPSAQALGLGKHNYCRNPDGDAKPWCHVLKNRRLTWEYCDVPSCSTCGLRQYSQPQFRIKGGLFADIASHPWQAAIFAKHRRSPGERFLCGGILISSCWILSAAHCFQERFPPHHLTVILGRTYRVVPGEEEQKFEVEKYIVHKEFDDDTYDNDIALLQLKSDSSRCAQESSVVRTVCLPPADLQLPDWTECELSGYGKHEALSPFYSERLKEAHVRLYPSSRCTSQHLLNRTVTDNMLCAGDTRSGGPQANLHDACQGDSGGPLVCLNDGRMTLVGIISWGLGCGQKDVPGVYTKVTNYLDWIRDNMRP

Which IC50 [1] does the source give for CC(C)c1cc(-c2ccc3c(c2)[C@H](N)CO3)cc([C@H](O)Cn2ccc3cccc(C(=O)O)c32)c1 here?
The IC50 was 0.25 µM.

And the IC50 [2]?
Its IC50 is 2.4 µM.

What about the half-life [3] of the same compound?
The half-life was 2.8 h.

And the Cmax/dose [4]?
Its Cmax/dose is 494 nM.

And the IC50 (Coagulation factor X)?
The IC50 was 1.05 µM.

And the IC50 [5]?
The IC50 was 4.3 µM.

What about the Activity [6] of the same compound?
The Activity was 65%.

And the AUCt/dose [7]?
The AUCt/dose was 382 nM·h.

What about the clearance [8] of the same compound?
The clearance was 4.4 mL/min/kg.

And the bioavailability [9]?
The bioavailability was 16%.

What about the 2aPTT (Plasma) of the same compound?
The 2aPTT was 1.3 µM.

And the Vd [10]?
The Vd was 0.3 L/kg.

And the bioavailability [11]?
The bioavailability was 45%.

And the IC50 (Coagulation factor IX)?
The IC50 was 1.92 µM.

What about the bioavailability [12] of the same compound?
Its bioavailability is 100%.
